Here are results for 13 molecules from PMC3997752, “Molecular characterization of Plasmodium falciparum uracil-DNA glycosylase and its potential as a new anti-malarial drug target” (Malaria Journal, 2014).

Series [1] addresses recombinant PfUDG (Plasmodium falciparum, UniProt Q8ILU6, P157T). As to the kind of experiment: Inhibition of recombinant PfUDG activity (32P-labelled oligo-U glycosylase assay). The class given is biochemical. The settings on record: for Inhibitory effect of UGI on recombinant PfUDG: 1:1 molar ratio of PfUDG and UGI. As to the method:
(§1) The UDG activity assay (20 μl) consisted of standard reaction buffer containing 20 mM Tris–HCl pH 8.0, 1 mM DTT, 1 mM EDTA, 50 mM NaCl, 100 μg/ml BSA, 10 pmol ^32P-labelled oligo-U, and 20 ng of PfUDG at 37°C for 20 min. The glycosylase activity was stopped by heating at 100°C for 1 min, the resulting apurinic/apyrimidinic site (AP site) was incised by hot alkaline treatment with 0.1 M NaOH (final concentration) at 95°C for 10 min, and the reaction was neutralized with 0.1 M HCl (final concentration). The AP lyase activity assay of PfUDG was examined under the same condition as UDG activity assay except without hot alkaline treatment. Reaction products were analysed on 8 M urea-16% denaturing PAGE and exposed to X-ray film for autoradiography for visualization. The radioactive intensity of sliced substrate and product bands from the gel were measured in a 1450 MicroBeta® Trilux Liquid Scintillation Counter (Perkin Elmer) as counts per minute (cpm). The amounts of substrate and product (pmol) were determined from radioactive intensity. One unit of activity is defined as the amount of PfUDG required for releasing 1 pmol of uracil in 1 min at 37°C in standard reaction buffer (20 mM Tris–HCl pH 8.0, 50 mM NaCl, 1 mM EDTA, 1 mM DTT, and 100 μg/ml BSA) with ^32P-labelled single stranded oligo-U substrate.
Two types of UDG inhibitors, UGI protein and synthetic uracil-derived compounds, were tested for their inhibitory effects on PfUDG. UGI protein of B. subtilis bacteriophage PBS1 (New England BioLabs) was used against native and recombinant PfUDG with 10 pmol ^32P-labelled single stranded oligo-U in the standard reaction buffer at 37°C for 20 min. The synthetic uracil-derived compounds were also used at various concentrations (5–640 μM) with 20 ng of recombinant PfUDG and 10 pmol ^32P-labelled single stranded oligo-U in the standard reaction buffer at 37°C for 20 min. The same 0.4% (v/v final concentration) of DMSO was used as solvent control to determine its effects on enzyme activity. The dose–response curves of relative activities of PfUDG and various compound concentrations were generated, and half-maximal inhibitory concentration (IC50), the concentration of compound to inhibit enzyme activity by 50%, was obtained using SigmaPlot 12.0.

Series [2] relates to P. falciparum K1 strain. Description: Inhibition of parasite growth in vitro, SYBR Green I based assay. The format is cell-based. The settings on record: Plasmodium falciparum, synchronized ring stage K1 strain. As to the method:
The synchronized ring stage of P. falciparum K1 strain was prepared from mixed stage parasite culture by 5% D-sorbitol treatment. The ring stage parasite was then mixed with culture medium containing RPMI 1640 supplemented with 10% human serum. Various concentrations of each uracil-derived compound were tested at 2-fold serial dilutions in triplicate. Their inhibitory effects on parasite growth were determined by SYBR Green I based assay. The fluorescent intensity was measured by Varioskan Flash Multimode Reader (Thermo Scientific, Vantaa, Finland) with excitation and emission wavelengths of 485 and 535 nm, respectively. The percentage of fluorescent intensity at each compound concentration compared with negative control was indicative of the parasite growth. The dose–response curves of fluorescent intensity and compound concentrations were generated, and IC50, the concentration of compound to inhibit parasite growth by 50%, was obtained using SigmaPlot 12.0.

In series [3] the test system is HSV-1 UDG. More on the design: method as in PMID 8391260. The settings on record: HSV-1 UDG purified from HSV-1-infected HeLa cells; cited from earlier work.
A short description of series [4]: Cytotoxicity test, MTT colorimetric assay. The class given is cell-based. The settings on record: human, HepG2 cells. As to the method:
The uracil-derived compounds showing inhibitory effects on PfUDG were assayed for cytotoxicity to human hepatocyte carcinoma cell line ATCC HB 8665 (HepG2) by in vitro cytotoxicity test. The methylthiazol tetrazolium (MTT)-dye based colorimetric microtitration assay was used for detecting cell survival based on the metabolism of tetrazolium to formazan by viable cells. The OD of formazan was measured by a Molecular Devices Microplate Reader (Molecular Devices, CA, USA) at a wavelength of 570 nm. The OD570 represented the cell survival, and the percentage of cell survival at each compound concentration was determined by comparing with the OD570 of negative control lacking compounds. The dose–response curves of % cell survival, and compound concentrations and IC50 were obtained. IC50 representing the concentration of compounds providing 50% cell survival indicated the cytotoxicity of compounds.
On the technique in general: Formazan colour is commonly taken as a measure of viable cells.

In series [5] the test system is human UDG. Further details: method as in PMID 8391260. The following applies: purified human HeLa UDG; cited from earlier work.
The test system of series [6] is native PfUDG. As to the kind of experiment: Inhibition of native PfUDG activity by UGI (32P-labelled oligo-U glycosylase assay). The following applies: 1:1 molar ratio of PfUDG and UGI. The class given is biochemical, Plasmodium falciparum. As to the method: as §1, with “substrate. […]” for “substrate.”
The mark [7] stands for this setting: listed as uracil glycosylase inhibitor protein.

Sequence of recombinant PfUDG (Q8ILU6 whole entry P157T): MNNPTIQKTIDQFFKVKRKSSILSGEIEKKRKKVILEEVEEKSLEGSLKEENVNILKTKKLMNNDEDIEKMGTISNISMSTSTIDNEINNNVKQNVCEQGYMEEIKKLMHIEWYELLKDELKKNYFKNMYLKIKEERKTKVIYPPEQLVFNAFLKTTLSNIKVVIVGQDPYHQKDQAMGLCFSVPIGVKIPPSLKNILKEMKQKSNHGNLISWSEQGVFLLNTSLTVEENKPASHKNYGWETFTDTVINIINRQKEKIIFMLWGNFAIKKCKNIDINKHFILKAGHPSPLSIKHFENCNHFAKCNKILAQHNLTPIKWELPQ

Turning to `CCCCCc1ccc(Nc2cc(=O)[nH]c(=O)[nH]2)cc1` [compound 9, 6-(p-n-Pentylanilino)uracil], the IC50 in series [1] was greater than 400 µM; in series [2] it was 10.5 µM; in series [3], 30 µM.
Take `O=c1cc(NNc2ccccc2)[nH]c(=O)[nH]1` [compound 2, 6-(Phenylhydrazino)uracil]: the 50% inhibitory concentration (IC50) in series [1] is 77.5 µM; in series [2] it was 12.8 µM; in series [4] it was 27.5 ± 4.58 µM.
Regarding `CCCCc1ccc(Nc2cc(=O)[nH]c(=O)[nH]2)cc1` [compound 7, 6-(p-n-Butylanilino)uracil], the IC50 in series [1] is greater than 400 µM; in series [2] it was 10 µM; in series [3] it was 150 µM.
On to `CC(C)c1ccc(Nc2cc(O)nc(O)n2)cc1` [compound 11, 6-(p-i-Propylanilino)uracil], for which the IC50 in series [1] was greater than 400 µM; in series [2], 12.6 µM.
In the same order, the values of `Cc1ccc(Nc2cc(=O)[nH]c(=O)[nH]2)cc1` [compound 4, 6-(4-Methylanilino)uracil] are greater than 400 µM and 7.1 µM.
For the molecule `CCCCCCCCc1ccc(Nc2cc(=O)[nH]c(=O)[nH]2)cc1` [6-(4-n-octylanilino)uracil, 6-(4-n-Octylanilino)uracil], the 50% inhibitory concentration (IC50) in series [5] is greater than 300 µM.
`O=c1cc[nH]c(=O)[nH]1` [compound 6, Uracil]: the concentration for half-maximal inhibition (IC50) was greater than 400 µM in series [1] and 10 µM in series [2].
As for `CCCCCCCc1ccc(Nc2cc(=O)[nH]c(=O)[nH]2)cc1` [compound 3, 6-(p-n-Heptylanilino)uracil], the IC50 in series [1] is greater than 400 µM; in series [2] it was 5 µM; in series [3], 20 µM.
In the case of `CCc1cc(Nc2cc(=O)n(CCCCO)c(=O)[nH]2)ccc1C` [compound 8, 3-(4-Hydroxybutyl)-6-(3-ethyl-4-methylanilino)uracil], the IC50 in series [1] is greater than 400 µM; in series [2], 10.2 µM.
Take `CC(C)Cc1ccc(Nc2cc(=O)[nH]c(=O)[nH]2)cc1` [compound 12, 6-(p-i-Butylanilino)uracil]: the figures for the IC50 in series [1] and in series [2] were greater than 400 µM and 16.5 µM, respectively.
As to `CC(C)CCc1ccc(Nc2cc(=O)[nH]c(=O)[nH]2)cc1` [compound 10, 6-(p-i-Pentylanilino)uracil], the IC50 in series [1] is greater than 400 µM; in series [2] it was 11 µM; in series [3], 140 µM.
For `CCCc1ccc(Nc2cc(=O)[nH]c(=O)[nH]2)cc1` [compound 5, 6-(p-n-Propylanilino)uracil], the IC50 in series [1] was greater than 400 µM; in series [2], 7.9 µM.

B1: UGI: UGI protein of B. subtilis bacteriophage PBS1 (New England BioLabs), a well-known UDG inhibitor (protein, UniProt P14739 1-84, looked up)
Uracil-DNA glycosylase …: MTNLSDIIEKETGKQLVIQESILMLPEEVEEVIGNKPESDILVHTAYDESTDENVMLLTSDAPEYKPWALVIQDSNGENKIKML
Regarding B1, the “Inhibitory effect of UGI on recombinant PfUDG” value in series [1] is “completely inhibited”; in series [1] (setting [7]), “inhibited”. The “Inhibitory effect of UGI on native PfUDG” value in series [6] is on record as “completely inhibited”; in series [6] (setting [7]), “inhibited”.

A word on the IC50: it is the concentration needed to halve the response being measured.
